From PubChem BioAssay AID602298 (The Scripps Research Institute Molecular Screening Center, 2012)
Active and inactive are the calls of the source. How the calls were made is not given here.

Biological target: Melanocortin receptor 4 (Homo sapiens) (UniProt P32245)
Test: PubChem AID 602298
Settings: MC4R stable cells, MTII-stimulated cAMP, TR-FRET

Melanocortin receptor 4 (Homo sapiens), sequence (P32245 whole entry, looked up): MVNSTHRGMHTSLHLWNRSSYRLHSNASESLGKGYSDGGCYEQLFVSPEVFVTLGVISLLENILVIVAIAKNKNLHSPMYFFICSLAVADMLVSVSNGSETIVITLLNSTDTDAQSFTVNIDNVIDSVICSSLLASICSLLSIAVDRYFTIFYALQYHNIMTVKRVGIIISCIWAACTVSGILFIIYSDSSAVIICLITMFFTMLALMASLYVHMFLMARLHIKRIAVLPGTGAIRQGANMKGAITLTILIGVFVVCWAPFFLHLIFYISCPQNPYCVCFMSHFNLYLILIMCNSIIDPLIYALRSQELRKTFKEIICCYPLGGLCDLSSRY

CCOP(=O)(CCP(=O)(OCC)OCC)OCC.C[CH2][Sn]([Cl])([Cl])[CH2]C
IC50: inactive
